Results from patent publication US8362066B2, “Compounds and methods for treating protein folding disorders” (Treventis Corporation, priority 2006, dated 2013).
Entries after “also recorded” stand apart in the source; their conditions may differ.

Assays:
[1] = tested on: SH-SY5Y neuroblastoma cells; test: MTT cell viability assay, protection from Aβ40; type: cell-based; conditions: Aβ40 20 μM
Method: The assay was based on that reported by Conte and co-workers (Conte, A., Pellegrini, s. & Tagliazucchi, D. 2Q03. Brain Res. Bull. 62, 29-38). Briefly, Aβ1-40 (1.0 mg) was dissolved directly in Tris base ([…], […], pH approximately 10). The pH was dropped to 7.4 using concentrated HCl and the solution diluted ten-fold with growth medium consisting of Dulbecco's Modified Eagle Medium (high glucose) containing 10% fetal bovine serum. penicillin-G (10,000 units/mL) and streptomycin (10 mg/mL); giving 20 μM Aβ40. For non-Aβ-containing controls. growth medium was diluted 10% with Tris buffer (20 mM, pH 7.4). SH-SY5Y neuroblastoma cells were seeded at approximately 20,000 cells per well in a covered 96-well clear polystyrene plate and incubated at 37° C., 5% CO2 for 24 h. After discarding supernatant, growth medium (200 μL), containing either Aβ3-40 or vehicle (controls), was added to the wells, followed by test compound in DMSO (0.5 μL) or DMSO alone (controls). Incubations all had 5 or more replicates. After incubating for 6-10 h (37° C., 5% C02), the dye 3-(4,5-dimethylthiazol-2-yl)-2,5-diphenyltetrazolium bromide (MTT, 20 microL. 5 mg/mL in PBS) was added to each well and the plate incubated for another 2 h. Medium was discarded and the formazan product dissolved by adding DMSO (100 μL) and shaking. Absorbance was measured at 540 nm in a Tecan Genios microplate reader.

Aβ1-40 [2] = target: T1, Aβ1-40 (Homo sapiens, UniProt P05067); test: Tris-tricine SDS-PAGE, Aβ1-40 self-assembly following ThT aggregation assay; type: biochemical; conditions: FIG. 9
T1 construct: Both Aβ1-40 and Aβ1-42 were purchased from Anaspec; purchased Anaspec
T1 sequence (P05067 672-711 limits assumed): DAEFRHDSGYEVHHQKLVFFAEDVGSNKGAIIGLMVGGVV
Method: (§1) Pre-cast polyacrylamide gels were purchased from NuSep (10-20% Tris-tricine-SDS). These were chosen for their large separation range of 2.5 to 205 kDa. Molecular weight markers were purchased from Sigma Aldrich and diluted twenty fold for individual use. Three buffers were used for this technique: 1) Sample buffer (1.25 mL 0.5 M Tris-HCl (pH 6.8), 2.5 mL glycerol, 2.0 mL 10% SDS, 0.2 mL 0.5% bromophenol blue, 3.55 mL distilled water) which was used as the leading band in the gel. 2) Cathode Buffer (12.11 g tris base, 17.92 g tricine, 1 g SDS, diluted to 1 L with distilled water) which was the inner buffer in the tank assembly. 3) Anode Buffer (5× concentrated: 121.1 g tris base in 1 L of distilled water, pH 8.9 adjusted with concentrated HCl) which was the outer buffer and loaded at 1× concentration. Both Aβ1-40 and Aβ1-42 were purchased from Anaspec.
(§2) Five solutions were required to stain the gels using the silver stain protocol: 1) Fixer 1 (40% methanol, 10% acetic acid, diluted to 1 L with Millie-Q water) 2) Fixer 2 (45 g anhydrous sodium acetate, 300 mL methanol, 5 mL 25% glutaraldehyde, diluted to 1 L with Millie-Q water), 3) a) Silver stain A (15 mL of 25% ammonia solution, 0.8 g sodium hydroxide, diluted to 950 mL with Millie Q water). b) Silver stain B (6 g of silver nitrate in 50 mL Millie Q water). Solution B was then slowly added to solution A. 4) Developer (0.1 g citric acid, 1 mL formaldehyde, diluted to 1 L with Millie-Q water), 5) Stop solution (50 mL acetic acid, diluted to 1 L with Millie-Q water).
(§3) Following a ThT (Aβ1-40) or ThS (Tau 441) aggregation assay, described in Example 8 of US2007/0015813, samples were immediately aspirated and stored in centrifuge tubes. 10 μL of each sample was transferred to a microfuge tube and diluted 1:1 with sample buffer before being incubated (37° C.) for 30 minutes and loaded in the precast gels (15 μL in each well). The gel was then run at 100 V for approximately one hour or until the leading band reached the bottom of the gel.
(§4) Once the gel had finished running, it was removed from its plastic case and placed in a tray for staining. Approximately 200-250 mL volume was used for all the solutions. The gel was first washed with distilled water briefly to rinse off the excess buffer from the tank. It was then immersed in Fixer 1 for 30 minutes. followed by Fixer 2 for 30 minutes. Once the gel was fixed it then underwent three water washes at 10 minutes per wash. After the water washes, the gel was stained for 30 minutes using the silver stain solution. Excess stain was removed using three four-minute water washes. The gel was then immersed in the developer solution to visualize the stain. This took place for approximately 5 minutes or until the desired intensity was reached. To immediately stop the developing process the gel was placed in the stop solution for 10 minutes.

Aβ1-40 [3] = target: T1, Aβ1-40; test: TEM of Aβ1-40 fibrils; type: biochemical; conditions: Aβ1-40 20 μM; for Aβ1-40 fibril formation (TEM): compound 20 μM, following ThT aggregation assay, FIG. 11; for Aβ1-40 fibrils (TEM): absence of ThT
Method: (§5) A modified version of the procedure of Cohen et al. (Biochemistry 2006, 45: 4727-35) was followed for TEM analysis. Uranylacetate was used as negative stain (Electron Microscopy Sciences) and was made as a 3% solution and stored at 5° C. in the dark to reduce photodecay. Aspirated samples from ThT (Aβ1-40) and ThS (Tau 441) aggregation assays, or Aβ1-42 incubated (37° C.) for 30 min. in the presence and absence of compounds were used in the TEM analyses. Samples were carefully loaded on Formvar-coated 400 mesh copper grids (Electron Microscopy Sciences) as a 10 μL drop. After sitting for 60 seconds, excess fluid was gently dabbed off with filter paper. Next, the 3% uranylacetate was added as a drop onto the grid and left to stand for another 60 seconds. The excess fluid was again dabbed off by filter paper. Samples were left to dry for at least 30 minutes prior to being viewed on an electron microscope operating at 80 kV.

Aβ1-40 [4] = target: T1, Aβ1-40; test: ThT fluorescence assay, inhibition of Aβ1-40 aggregation; type: biochemical
Method: The compounds of the invention were evaluated for activity against Aβ aggregation in a kinetic thioflavin T (ThT) fluorescence assay similar to that of Chalifour, R. J., et al., J. Biol. Chem. (2003) 278: 34874-81. IC50 values for inhibition of Aβ1-40 aggregation in the ThT fluorescence assay for a number compounds of the present invention were determined. Values were calculated by solving the equation y=(m2)/(1+(x/m3)^m4) where y is percent aggregation, x is compound concentration, and m3 is the concentration giving 50% aggregation (i.e. IC50), using KaleidaGraph 4.0 (Synergy Software). Dye-binding ThT/ThS protein aggregation assays for Aβ, tau and α-synuclein were performed as described in Example 8 of US2007/0015813.

Aβ1-42 [5] = target: T2, Aβ1-42 (Homo sapiens, UniProt P05067); test: TEM of Aβ1-42 fibrils; type: biochemical; conditions: Aβ1-42 20 μM, absence of ThT, FIG. 13
T2 construct: Both Aβ1-40 and Aβ1-42 were purchased from Anaspec; purchased Anaspec
T2 sequence (P05067 672-713 limits assumed): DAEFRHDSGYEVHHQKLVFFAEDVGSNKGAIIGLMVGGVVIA
Method: as §5

α-synuclein = α-synuclein (Homo sapiens, UniProt P37840); test: ThT fluorescence assay, α-synuclein aggregation; type: biochemical; conditions: α-synuclein 4 μM; compound 100 μM and 20 μM; 96 hours, 37° C., FIG. 16
Method: (§6) The following procedures were used. The compounds were examined by circular dichroism (CD) to confirm their anti-amyloidogenic activity and were further evaluated for inhibition of both tau and α-synuclein aggregation in Thioflavin S (ThS) and ThT dye-binding fluorescence assays, respectively. The compounds were also evaluated in a MTT [3-(4,5-dimethylthiazol-2-yl)-2,5-diphenyltetrazolium bromide] cell viability assay (Kaneko, I., et al., J. Neurochem. (1995) 65: 2585-93). Pharmacokinetic (PK) testing was also performed. Compounds administered to mice (IP or PO dosing) had no toxicity at doses up to 300 mg/kg and were present in brain more than four hours after administration.
(§7) Dye-binding ThT/ThS protein aggregation assays for Aβ, tau and α-synuclein were performed as described in Example 8 of US2007/0015813.

[6] = tested on: APP/PS1 transgenic mice hippocampal slices; test: LTP electrophysiology in hippocampal slices; type: cell-based; conditions: 50 μM, FIG. 18
Method: Electrophysiological analysis was performed on males (see detailed description in Gong, B., el al., Cell (2006) 126: 775-88). Hippocampal slices (400 μm) were cut with a tissue chopper and maintained in an interface chamber at 29° C. for 90 min prior to recording. Briefly. CA1 fEPSPs were recorded by placing both the stimulating and the recording electrodes in CA1 stratum radiatum. Basal synaptic transmission was assayed by plotting the stimulus voltages against slopes of fEPSP. For LTP experiments, a 15 min baseline was recorded every min at an intensity that evokes a response ˜35% of the maximum evoked response. LTP was induced using θ-burst stimulation (4 pulses at 100 Hz, with the bursts repeated at 5 Hz and each tetanus including 3 ten-burst trains separated by 15 sec).

Tau 441 [7] = target: T3, Tau 441 (Homo sapiens, UniProt P10636); test: Tris-tricine SDS-PAGE, Tau 441 self-assembly following ThS aggregation assay; type: biochemical; conditions: FIG. 10; for effect on Tau 441 self-assembly, monomer fragmentation (SDS-PAGE): relative to control
T3 sequence (P10636 1-441 isoform P10636-8): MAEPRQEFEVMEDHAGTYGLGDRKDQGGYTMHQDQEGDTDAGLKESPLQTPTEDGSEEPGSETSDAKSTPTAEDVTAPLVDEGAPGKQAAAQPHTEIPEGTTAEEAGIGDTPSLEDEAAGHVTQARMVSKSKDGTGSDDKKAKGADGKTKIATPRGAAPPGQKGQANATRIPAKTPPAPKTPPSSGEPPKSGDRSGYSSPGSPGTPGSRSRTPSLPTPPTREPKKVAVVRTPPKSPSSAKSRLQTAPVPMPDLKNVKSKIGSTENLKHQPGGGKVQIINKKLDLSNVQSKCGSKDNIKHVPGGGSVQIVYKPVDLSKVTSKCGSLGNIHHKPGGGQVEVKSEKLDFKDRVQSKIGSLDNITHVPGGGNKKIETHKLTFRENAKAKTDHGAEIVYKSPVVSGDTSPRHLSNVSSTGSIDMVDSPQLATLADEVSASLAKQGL
Method: as §1, §2, §3, §4

Tau 441 [8] = target: T3, Tau 441; test: TEM of Tau 441 fibrils following ThS aggregation assay; type: biochemical; conditions: Tau 441 6 μM, compound 20 μM, FIG. 14
Method: as §5

Tau 441 [9] = target: T3, Tau 441; test: ThS fluorescence assay, Tau 441 aggregation; type: biochemical; conditions: Tau 441 6 μM; compound 50 μM and 10 μM; 24 hours, 37° C., FIG. 15
Method: as §6, §7

Aβ1-42 [10] = target: T2, Aβ1-42; test: Tris-tricine SDS-PAGE, Aβ1-42 self-assembly; type: biochemical; conditions: versus control, FIG. 8
Method: as §1
as §2, with “Solution B was then slowly added to solution A. 4) Developer (0.1 g citric acid, 1 mL formaldehyde, diluted to 1 L with Millie-Q water), 5) Stop solution (50 mL acetic acid, diluted to 1 L with Millie-Q water).” left out

For `O=C(O)c1cccc2c(-c3c[nH]c4ccccc34)c[nH]c12` [QR-0112], the “% cell viability, protection from Aβ40” value ([1]; 50 μM compound) was “significantly protective”, the “% cell viability, protection from Aβ40” value ([1]; 2 and 10 μM compound) was “trends towards protection” and the “effect on distribution of Aβ1-40 among states of assembly / monomer (SDS-PAGE)” value (Aβ1-40 [2]) was “increase in the concentration of Aβ1-40 monomer”. The “Aβ1-40 fibril formation (TEM)” value (Aβ1-40 [3]) was “increase in fibril formation but of a different morphology” and the IC50 (Aβ1-40 [4]) was 34.4 µM.

`Oc1ccc2[nH]cc(-c3c[nH]c4ncccc34)c2c1` [QR-0161] was tested, and the “% cell viability, protection from Aβ40” value ([1]; 20 and 50 μM compound) was “significantly active”.

For `COc1ccc2[nH]cc(-c3c[nH]c4ccc(N)cc34)c2c1` [QR-0185], the “Aβ1-42 fibrils (TEM)” value (Aβ1-42 [5]; compound 100 μM) was “decrease in fibrils” and the IC50 (Aβ1-40 [4]) was 12.5 µM.

For `O=C(O)c1ccc2[nH]cc(-c3c(O)c(O)cc4ccccc34)c2c1` [QR-0194], the “Aβ1-40 fibril formation (TEM)” value (Aβ1-40 [3]) was “increase in fibril formation but of a different morphology”, the “inhibition of α-synuclein aggregation (ThT fluorescence)” value (α-synuclein) was “showed inhibition” and the “Aβ1-42 fibrils (TEM)” value (Aβ1-42 [5]; compound 20 μM) was “apparent increase in the number of fibrils”. It also gave an IC50 (Aβ1-40 [4]) of 17.7 µM.

With `O=C(O)c1ccc2[nH]cc(-c3ccc4cc(O)ccc4c3)c2c1` [QR-0217] the “rescue of LTP impairment” value [6] was “significantly rescued impairment of LTP; also recorded: significantly (P=0.022) rescuing impairment of LTP” and the “inhibition of α-synuclein aggregation (ThT fluorescence)” value (α-synuclein) was “showed inhibition”.

With `COc1ccc2cc(-c3c[nH]c4c(C(=O)O)cccc34)ccc2c1` [QR-0262, 3-(2-Methoxynaphthalen-6-yl)-1H-indole-7-carboxylic acid] the “effect on Tau 441 self-assembly, monomer fragmentation (SDS-PAGE)” value (“effect on Tau 441 self-assembly” for short) (Tau 441 [7]) was “no clear effect”, the “Tau 441 assemblies seen (TEM)” value (Tau 441 [8]) was “spherical assemblies that were not present in the control” and the “Tau 441 fibril formation (TEM)” value (Tau 441 [8]) was “increase in fibril formation”. For the same compound, the “inhibition of Tau 441 aggregation (ThS fluorescence)” value (“inhibition of Tau 441 aggregation” below) (Tau 441 [9]) was “only moderately inhibited” and the IC50 (Aβ1-40 [4]) was 4.4 µM.

For `O=C(O)c1cc2cc(-c3ccc4cc(O)ccc4c3)ccc2c(Br)c1O` [QR-0263, 4-bromo-3-hydroxy-7-(2-hydroxynaphthalen-6-yl)naphthalene-2-carboxylic acid], the “Tau 441 dimer and trimer bands (SDS-PAGE)” value (Tau 441 [7]) was “appearance of dimer and trimer bands”, the “effect on Tau 441 self-assembly” value (Tau 441 [7]) was “decreased fragmentation of tau 441 monomer” and the “Aβ1-40 fibrils (TEM)” value (Aβ1-40 [3]; compound at 20, FIG. 12) was “reduction in fibrils”. For the same compound, the “inhibition of Tau 441 aggregation” value (Tau 441 [9]) was “greatly inhibited” and the IC50 (Aβ1-40 [4]) was 1.93 µM.

In the case of `O=C(O)c1cccc2c(-c3c(O)c(O)cc4ccccc34)c[nH]c12` [QR-0273], the “effect on Aβ1-42 self-assembly (SDS-PAGE)” value (Aβ1-42 [10]) is reported as “increase in the presence of monomer and pentamer as well as the appearance of a dimer”, the “Aβ1-40 fibrils (TEM)” value (Aβ1-40 [3]; compound 100 μM, FIG. 12) is reported as “increase in the number of fibrils” and the IC50 (Aβ1-40 [4]) is reported as 10.3 µM.

For `O=C(O)c1cc2cc(-c3ccc4c(c3)OCCO4)ccc2c(Br)c1O` [QR-0281, 4-Bromo-7-(2,3-dihydrobenzo[b][1,4]dioxin-7-yl)-3-hydroxyynaphthalene-2-carboxylic acid], the “Tau 441 dimer and trimer bands (SDS-PAGE)” value (Tau 441 [7]) was “appearance of dimer and trimer bands”, the “effect on Tau 441 self-assembly” value (Tau 441 [7]) was “decreased fragmentation of tau 441 monomer” and the “Tau 441 assemblies seen (TEM)” value (Tau 441 [8]) was “spherical assemblies that were not present in the control”. The “Tau 441 fibril formation (TEM)” value (Tau 441 [8]) was “increase in fibril formation”, the “inhibition of Tau 441 aggregation” value (Tau 441 [9]) was “greatly inhibited” and the IC50 (Aβ1-40 [4]) was 4.6 µM.
